Measured values reported in patent publication US20250289809A1, “COMPOUNDS USEFUL FOR GOUT” (ATOM BIOSCIENCE AMERICA CORPORATION, priority 2022, published 2025).

Assays:
[1] = tested on: potassium oxonate -induced hyperuricemic rats; assay: Serum uric acid level in potassium oxonate-induced hyperuricemic rats after 3-day administration; type: in vivo, Sprague Dawley (SD) rats; conditions: for Uric acid: serum, mean ± SD, n=6; for Effect on serum uric acid level after modeling, compared with the model group at the same time point: 2 mg/kg gavage, hyperuricemic rats, result in words
Description: Compound 30 and 32 were light yellow powders and triturated with 0.5% CMC-Na just prior to use to prepare suspensions having a corresponding concentration for gavage.
Febuxostat, purchased from Sigma, was triturated with 0.5% CMC-Na just prior to use to prepare a suspension having a corresponding concentration for gavage.
Sprague Dawley (SD) rats, SPF grade, 30, male, weighing 230-250 g, purchased from Shanghai SLAC Laboratory Animal Co., Ltd., permission number: SCXK (hu) 2022-0004, quality certification number: 20220004017238.
Uric acid assay kit (phosphotungstic acid reduction method), batch number: 20230224, purchased from NanJing Jiancheng Bioengineering Institute; Potassium oxonate, article number: 00164, batch number: T6GKM-TA, purchased from Tokyo Chemical Industry Co., Ltd., Japan (TCI); carboxymethyl cellulose sodium (CMC-Na), batch number: 20170810, chemically pure, purchased from Sinopharm chemical reagent Co., Ltd.
30 male SD rats weighed approximately 220-240 g after one week of adaptation. They were randomly divided into 5 groups according to the body weight, with 6 rats in each group, namely: (1) normal group (0.5% CMC-Na), (2) model group (0.5% CMC-Na), (3) Febuxostat, 2 mg/kg, (4) compound 30, 2 mg/kg and (5) compound 32, 2 mg/kg. The drugs in each group were prepared into a corresponding concentration suspension, and the administration volume was 0.5 mL/100 g.
After the rats in each group were purchased and adapted to feeding, they were fasted for 12 h, and intraperitoneally injected with potassium oxonate at a dose of 300 mg/kg to establish a model. 0.5 h after modeling, each test drug group was subjected to gavage administration once. The drug was administered continuously for 3 days. On day 3, blood samples were collected from the retro-orbital venous plexus before and 1, 3 and 5 h after injection of potassium oxonate. The samples were centrifuged at 3500 rpm for 10 min, and 30 μL of serum was collected to measure the uric acid level at each time point.
The measurement data of each test were expressed as (mean)±(standard deviation). The comparison between groups used ANOVA-Dunnett T test to examine the significance. P<0.05 was used as the significance index, and P<0.01 was used as the extremely significant index.

[2] = In vivo pharmacokinetic experiments in SD rats (oral and intravenous); conditions: male, Sprague-Dawley (SD), rat, plasma
Experimental: Preparation of compound stock solution: An appropriate amount of compound solid powder was be weighed and added in a certain amount of DMSO, and vortex ultrasound to obtain a 10 mg/mL stock solution.
(§1) Preparation of test compound for gavage: respectively taking an appropriate amount of the compound stock solution, adding a certain amount of Solutol HS15 solution, vortexing for 1 minute, then adding a certain amount of physiological saline, and fully mixing to obtain a 1 mg/mL solution.
as §1, with “for intravenous injection:” for “for gavage:”, “mixing until uniform, so as” for “mixing”, “a 0.5” for “a 1”
SD rats, male, SPF grade, 6-8 weeks old, purchased from JH Laboratory Animal Co. LTD. Permission number: SCXK (SH) 2022-0009, certification number: 20220009004139.
The experimental animals were fasted overnight before gavage administration, and were given food 4 hours after administration, with free access to water. Each test compound was divided into two groups, namely, intravenous administration group and oral administration group.
Blood samples (150 μL/sample) were collected from the jugular vein of SD rats before administration and at 5 min (only intravenous administration group), 15 min, 30 min, 1 h, 2 h, 4 h, 8 h and 24 h after administration, respectively. The samples were placed in centrifuge tubes containing anticoagulant sodium heparin and centrifuged at 4° C., 2000 g for 5 minutes to separate plasma. The plasma samples were analyzed by LC/MS/MS to detect the concentration of each test compound.
Non-compartmental model-related parameters were calculated by WinNonlin® Professional software.

[3] = 0 h (before potassium oxonate injection on day 3), 2 mg/kg gavage once daily for 3 days
[4] = 1 h after potassium oxonate 300 mg/kg i.p. on day 3, 2 mg/kg gavage for 3 days
[5] = 3 h after potassium oxonate 300 mg/kg i.p. on day 3, 2 mg/kg gavage for 3 days
[6] = 5 h after potassium oxonate 300 mg/kg i.p. on day 3, 2 mg/kg gavage for 3 days
[7] = Intravenous injection administration - 1 mg/kg
[8] = po, Gavage administration - 10 mg/kg

| AUC(0-inf) [2, 7] [ng·h/mL] | Cmax [2, 7] [ng/mL] | MRT inf [2, 7] [h] | Tmax [2, 7] [h] | half-life [2, 7] [h] | AUC(0-inf) [2, 8] [ng·h/mL] | Cmax [2, 8] [ng/mL] | MRT inf [2, 8] [h] | Tmax [2, 8] [h] | half-life [2, 8] [h] | Compound | Uric acid [1, 3] [µmol/L] | Effect on serum uric acid level after modeling, compared with the model group at the same time point [1] | Uric acid [1, 4] [µmol/L] | Uric acid [1, 5] [µmol/L] | Uric acid [1, 6] [µmol/L] |
| --- | --- | --- | --- | --- | --- | --- | --- | --- | --- | --- | --- | --- | --- | --- | --- |
|  |  |  |  |  |  |  |  |  |  | Cc1nc(-c2ccc(OCC(C)C)c(C#N)c2)sc1C(=O)O [Febuxostat, reference compound] | 39.2 ± 6.2 | significantly reduce | 34.4 ± 7.1 | 31.2 ± 7.6 | 24.7 ± 4.7 |
| 1100 | 1860 | 3.69 | 0.083 | 7.72 | 12400 | 4670 | 4.22 | 0.25 | 3.44 | CCOC(=O)OC(C)OC(=O)c1cnn(-c2ccc3c(c2)c(C#N)cn3C(C)C)c1 (stereo not shown) [compound 11, {1-[(ethoxycarbonyl)oxy]}ethyl 1-(3-cyano-1-isopropyl-1H-indol-5-yl)-1H-pyrazole-4-carboxylate] |  |  |  |  |  |
|  |  |  |  |  |  |  |  |  |  | CC(C)n1cc(C#N)c2cc(-n3cc(C(=O)OCCCCO[N+](=O)[O-])cn3)ccc21 [compound 30, [4-(nitrooxy)]butyl 1-(3-cyano-1-isopropyl-1H-indol-5-yl)-1H-pyrazole-4-carboxylate] | 45.0 ± 8.4 | significantly reduce | 70.0 ± 14.8 | 94.2 ± 22.7 | 72.2 ± 11.4 |
|  |  |  |  |  |  |  |  |  |  | CC(C)n1cc(C#N)c2cc(-n3cc(C(=O)Oc4cccc(CO[N+](=O)[O-])c4)cn3)ccc21 [compound 32, phenyl [3-(nitrooxy)methyl] 1-(3-cyano-1-isopropyl-1H-indol-5-yl)-1H-pyrazole-4-carboxylate] | 49.1 ± 6.7 | significantly reduce | 68.9 ± 15.8 | 82.2 ± 23.3 | 65.8 ± 13.6 |
